Where “and” joins values, the source holds several entries; their conditions need not be identical. Identical values can stand only once.
Assays:
[1] = tested on: beagles; assay: 13-week repeated oral toxicity: observation of general symptoms; type: in vivo; conditions: repeated oral once a day for 13 weeks
Method: Furthermore, the present inventors performed a toxicity test on 5-hydroxy-1-methylimidazolidine-2,4-dione in beagles. Toxicity tests were conducted based on single oral administration and repeated oral administration for 13 weeks. The stability of the compound was analyzed by evaluating the analysis items including clinical symptoms, weight, feed intake, blood test, urine and eye test during the administration period.
General symptoms (such as vomiting, salivation, diarrhea, and abnormal behavior) and death were observed daily during the 13-week test period, starting from the day before administration, and abnormalities were recorded in clinical symptoms.

[2] = 13-week repeated oral toxicity: feed intake; type: in vivo, beagle; conditions: repeated oral once a day for 13 weeks
Method: During the 13-week test period starting from the day before administration, feed intake was measured a total of 14 times before administration (pre) and every week on the weight measurement day for 13 weeks after the first administration. Approximately 200 g/day/head of solid feed was injected into a feed container at a predetermined time on the day before the weight measurement day and consumed freely. After 24 hours, the remaining feed was measured the next day.

[3] = tested on: beagles; assay: 13-week repeated oral toxicity: urine test; type: in vivo, beagle; conditions: for Acidity / Specific gravity / Creatinine UPC / Occult blood / Protein / Bilirubin: urine
Method: Urine tests were performed on the urine collected in the morning of blood donation day (Wednesday of the week) after fasting for about 16 hours, before administration, 4th week (day 29) after administration, the 8th week (day 57) after administration, and 13th week (day 92) after administration. Urine was collected from all the fasting subjects using a silicone tube connected to a duct after mounting a urine plate at the bottom of the cage for 16 hours. The collected urine was centrifuged at 1,500 rpm for 5 minutes to obtain the supernatant, then immersed in a urine strip (thinka Urine Test Strip, ARKRAY, Inc., Japan), the residue around the strip was removed, urine was analyzed using a urine analyzer (thinka RT-4010, ARKRAY, Inc., Japan), and the urine specific gravity of each subject was measured using a urine hydrometer (Master-URC.NM, ATAGO CO., LTD, Japan).

[4] = before administration, 200 mg/kg group, female, group mean
[5] = before administration, 200 mg/kg group, female, individual animal
[6] = before administration, 200 mg/kg group, female, individual animal, 200 mg/kg
[7] = before administration, 200 mg/kg group, male, group mean
[8] = before administration, 200 mg/kg group, male, individual animal
[9] = before administration, 200 mg/kg group, male, individual animal, 200 mg/kg
[10] = before administration, 500 mg/kg group, female, group mean
[11] = before administration, 500 mg/kg group, female, individual animal
[12] = before administration, 500 mg/kg group, female, individual animal, 500 mg/kg
[13] = before administration, 500 mg/kg group, male, group mean
[14] = before administration, 500 mg/kg group, male, individual animal
[15] = before administration, 500 mg/kg group, male, individual animal, 500 mg/kg
[16] = before administration, 1,000 mg/kg group, female, group mean
[17] = before administration, 1,000 mg/kg group, female, individual animal
[18] = before administration, 1,000 mg/kg group, male, group mean
[19] = before administration, 1,000 mg/kg group, male, individual animal
[20] = 200 mg/kg, females, repeated administration for 13 weeks, group Mean
[21] = 200 mg/kg, females, repeated administration for 13 weeks, individual animals
[22] = 200 mg/kg, males, repeated administration for 13 weeks, group Mean
[23] = 200 mg/kg, males, repeated administration for 13 weeks, individual animals
[24] = 500 mg/kg, females, repeated administration for 13 weeks, group Mean
[25] = 500 mg/kg, females, repeated administration for 13 weeks, individual animals
[26] = 500 mg/kg, males, repeated administration for 13 weeks, group Mean
[27] = 500 mg/kg, males, repeated administration for 13 weeks, individual animals
[28] = 1,000 mg/kg, females, repeated administration for 13 weeks, group Mean
[29] = 1,000 mg/kg, females, repeated administration for 13 weeks, individual animals
[30] = 1,000 mg/kg, males, repeated administration for 13 weeks, group Mean
[31] = 1,000 mg/kg, males, repeated administration for 13 weeks, individual animals

For `CN1C(=O)NC(=O)C1O` (stereo not shown) [KBP-001, 5-hydroxy-1-methylimidazolidine-2,4-dione], the “general symptoms and deaths” value [1] was “no unusual symptoms (vomiting, salivation, diarrhea, behavioral abnormalities, etc.) or deaths occurred”, the feed intake [2] was “no significant difference in feed intake between respective groups” and the “urine test items including urine specific gravity” value ([3]; before and after administration, 13 weeks) was “fell within the normal physiological ranges”. For the same compound, the Acidity [3, 4] was 7.833 PH, the Specific gravity [3, 4] was 1.03 and the “Creatinine UPC” value [3, 5] was <0.20 mg(ratio). The Occult blood [3, 5] was 0.03(+−) RBC/dl, the Acidity [3, 6] was 8.0 PH and 7.0 PH and 8.5 PH and the Specific gravity [3, 6] was 1.02 (2×) and 1.04. For the same compound, the Acidity [3, 7] was 8.000 PH, the Specific gravity [3, 7] was 1.03 and the “Creatinine UPC” value [3, 8] was <0.20 mg(ratio). The Protein [3, 8] was 15(+−), the Acidity [3, 9] was 8.0 PH and 7.0 PH and 9.0 PH and the Specific gravity [3, 9] was 1.03. The Acidity [3, 10] was 6.833 PH, the Specific gravity [3, 10] was 1.02 and the “Creatinine UPC” value [3, 11] was <0.20 mg(ratio). The Occult blood [3, 11] was 0.03(+−) RBC/dl, the Acidity [3, 12] was 6.5 PH and 7.0 PH (2×) and the Specific gravity [3, 12] was 1.02. The Acidity [3, 13] was 8.167 PH, the Specific gravity [3, 13] was 1.03 and the Bilirubin [3, 14] was 0.5(1+). For the same compound, the “Creatinine UPC” value [3, 14] was <0.20 mg(ratio), the Acidity [3, 15] was 8.5 PH (2×) and 7.5 PH and the Specific gravity [3, 15] was 1.03 (2×) and 1.04. For the same compound, the Acidity [3, 16] was 7.667 PH, the Specific gravity [3, 16] was 1.03 and the Acidity [3, 17] was 8.0 PH and 7.5 PH (2×). The “Creatinine UPC” value [3, 17] was <0.20 mg(ratio), the Specific gravity [3, 17] was 1.04 and 1.02 (2×) and the Acidity [3, 18] was 8.000 PH. For the same compound, the Specific gravity [3, 18] was 1.03, the Acidity [3, 19] was 8.0 PH and 9.0 PH and 7.0 PH and the Bilirubin [3, 19] was 0.5(1+). The “Creatinine UPC” value [3, 19] was <0.20 mg(ratio), the Occult blood [3, 19] was 0.06(1+) RBC/dl and the Specific gravity [3, 19] was 1.03 and 1.02 and 1.04. The Acidity [3, 20] was 7.333 PH, the Specific gravity [3, 20] was 1.03 and the Acidity [3, 21] was 7.0 PH (2×) and 8.0 PH. For the same compound, the “Creatinine UPC” value [3, 21] was <0.20 mg(ratio), the Acidity [3, 22] was 8.567 PH and the Specific gravity [3, 22] was 1.04. For the same compound, the Acidity [3, 23] was 8.0 PH and 9.0 PH (2×), the Bilirubin [3, 23] was 0.5(1+) and the “Creatinine UPC” value [3, 23] was <0.20 mg(ratio). For the same compound, the Protein [3, 23] was 15(+−), the Specific gravity [3, 23] was 1.04 and 1.05 and 1.02 and the Acidity [3, 24] was 8.500 PH. The Specific gravity [3, 24] was 1.03, the Acidity [3, 25] was 9.0 PH and 8.5 PH and 8.0 PH and the “Creatinine UPC” value [3, 25] was <0.20 mg(ratio). The Specific gravity [3, 25] was 1.04 (2×) and 1.02, the Acidity [3, 26] was 8.500 PH and the Specific gravity [3, 26] was 1.04. For the same compound, the Acidity [3, 27] was 9.0 PH (2×) and 7.5 PH, the “Creatinine UPC” value [3, 27] was <0.20 mg(ratio) and the Protein [3, 27] was 15(+−). For the same compound, the Specific gravity [3, 27] was 1.05 and 1.02 and 1.04, the Acidity [3, 28] was 7.667 PH and the Specific gravity [3, 28] was 1.03. The Acidity [3, 29] was 8.0 PH and 7.5 PH (2×), the “Creatinine UPC” value [3, 29] was <0.20 mg(ratio) and the Specific gravity [3, 29] was 1.05 and 1.03 and 1.02. For the same compound, the Acidity [3, 30] was 7.833 PH, the Specific gravity [3, 30] was 1.03 and the Acidity [3, 31] was 9.0 PH and 7.0 PH and 7.5 PH. The “Creatinine UPC” value [3, 31] was <0.20 mg(ratio), the Occult blood [3, 31] was 0.06(1+) RBC/dl and 0.03(+−) RBC/dl and the Protein [3, 31] was 15(+−). For the same compound, the Specific gravity [3, 31] was 1.04 and 1.02 and 1.03.
